Laboratory results from patent US11186547B2, “High-purity quinoline derivative and method for manufacturing same” (Eisai R&D Management Co., Ltd., priority 2014, dated 2021).

Assays:
[1] = solubility in organic solvents; format: physicochemical
From the text: (§1) The compound (A-1) is the starting material of the step A, but its solubility in organic solvents is low.

[2] = genotoxicity, consideration of the present inventors; settings: according to the consideration of the present inventors
From the text: as §1

[3] = Workplace Safety Site, Public Notice No. 166 of Mar. 27, 2012; cited from earlier work
[4] = decomposition on heating after dissolution in a solvent; format: physicochemical; settings: heated after dissolved in a solvent

COc1cc2nccc(Cl)c2cc1C(N)=O [compound (A-1), 4-chloro-7-methoxy-quinoline-6-carboxamide]
solubility in organic solvents [1]: low | genotoxicity [2]: possibility that the compound (A-1) exhibits genotoxicity

COc1cc2nccc(Oc3ccc(N)c(Cl)c3)c2cc1C(N)=O [compound (I), 4-(4-Amino-3-chlorophenoxy)-7-methoxy-quinoline-6-carboxamide]
mutagenicity [3]: strong mutagenicity was recognized

COc1cc2nccc(Oc3ccc(NC(=O)NC4CC4)c(Cl)c3)c2cc1C(N)=O [methanesulfonate of the compound (IV), 4-[3-chloro-4-(cyclopropylaminocarbonyl)aminophenoxy]-7-methoxy-6-quinoline-carboxamide Methanesulfonate]
decomposition product formed [4]: the compound (I) is formed as a decomposition product
